# Patent US6525001B1, “Substituted pyrimidine and pyridine herbicides” (Mid-American Commercialization Corporation, priority 1997, dated 2003)
# Legend:
# Assay type in all cases: in vivo
# Design in all cases: key: 0 is no effect; 10 is complete control
# soybean (Glycine max) = test: Test B pre-/postemergence
# Text: (§1) Seeds of bedstraw (Galium aparine), blackgrass (Alopecurus myosuroides), broadleaf signalgrass (Brachiaria decumbens), cocklebur (Xanthium strumarium), corn (Zea mays), crabgrass (Digitaria sanguinalis), giant foxtail (Setaria faberii), lambsquarters (Chenopodium album), momingglory (Ipomoea hederacea), pigweed (Amaranthus retroflexus), rape (Brassica napus), soybean (Glycine max), sugar beet (Beta vulgaris), velvetleaf (Abutilon theophrasti), wheat (Triticum aestivum), wild oat (Avena fatua) and purple nutsedge (Cyperus rotundus) tubers were planted and treated preemergence with test chemicals formulated in a non-phytotoxic solvent mixture which included a surfactant.
# (§2) At the same time, these crop and weed species were also treated with postemergence applications of test chemicals formulated in the same manner. Plants ranged in height from 2 to 18 cm (1- to 4-leaf stage) for postemergence treatments. Plant species in the flood test consisted of rice (Oryza sativa), smallflower flatsedge (Cyperus difformis), duck salad (Heteranthera limosa) and bamyardgrass (Echinochloa crus-galli) grown to the 2-leaf stage for testing. Treated plants and controls were maintained in a greenhouse for twelve to sixteen days, after which all species were compared to controls and visually evaluated. Plant response ratings, summarized in Table B, are based on a scale of 0 to 10 where 0 is no effect and 10 is complete control. A dash (−) response means no test result.
# [1] = system: purple nutsedge (Cyperus rotundus); test: Test B pre-/postemergence; settings: for Nutsedge plant response rating: Preemergence
# Text: as §1, §2
# [2] = system: cocklebur (Xanthium strumarium); test: Test B pre-/postemergence; settings: for Plant response rating, Cocklebur: Postemergence
# Text: as §1, §2
# wild oat (Avena fatua) = test: Test B pre-/postemergence
# Text: as §1, §2
# [3] = system: crabgrass (Digitaria sanguinalis); test: Test B pre-/postemergence; settings: for Crabgrass plant response rating: Preemergence
# Text: as §1, §2
# corn (Zea mays) = test: Test B pre-/postemergence; settings: for Corn plant response rating: Preemergence
# Text: as §1, §2
# [4] = system: wheat (Triticum aestivum); test: Test B pre-/postemergence
# Text: as §1, §2
# [5] = system: sugar beet (Beta vulgaris); test: Test B pre-/postemergence
# Text: as §1, §2
# [6] = system: blackgrass (Alopecurus myosuroides); test: Test B pre-/postemergence; settings: for Blackgrass plant response rating: Preemergence
# Text: as §1, §2
# rape (Brassica napus) = test: Test B pre-/postemergence
# Text: as §1, §2
# [7] = system: velvetleaf (Abutilon theophrasti); test: Test B pre-/postemergence
# Text: as §1, §2
# [8] = system: bedstraw (Galium aparine); test: Test B pre-/postemergence; settings: for Plant response rating, Bedstraw: Postemergence; for Bedstraw plant response rating: Preemergence
# Text: as §1, §2
# [9] = system: broadleaf signalgrass (Brachiaria decumbens); test: Test B pre-/postemergence; settings: for B. signalgrass plant response rating: Preemergence
# Text: as §1, §2
# [10] = system: momingglory (Ipomoea hederacea); test: Test B pre-/postemergence
# Text: as §1, §2
# [11] = system: giant foxtail (Setaria faberii); test: Test B pre-/postemergence
# Text: as §1, §2
# [12] = system: pigweed (Amaranthus retroflexus); test: Test B pre-/postemergence
# Text: as §1, §2
# [13] = system: bamyardgrass (Echinochloa crus-galli); test: Test B flood test
# Procedure, shortened: (§3)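 Flood test on plants grown to the 2-leaf stage; treated plants kept in greenhouse twelve to sixteen days, then visually rated against controls on a 0 (no effect) to 10 (complete control) scale.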
# [14] = system: smallflower flatsedge (Cyperus difformis); test: Test B flood test
# Procedure, shortened: as §3
# [15] = system: duck salad (Heteranthera limosa); test: Test B flood test
# Procedure, shortened: as §3
# rice (Oryza sativa) = test: Test B flood test
# Procedure, shortened: as §3
# [16] = Rate 250 g/ha, Postemergence (so in the source)
# [17] = Rate 62 g/ha, Postemergence (flood test)
# [18] = Rate 125 g/ha, Postemergence, flood test
# [19] = Rate 250 g/ha, Postemergence (flood test species)
# [20] = Rate 125 g/ha, Postemergence section (flood test species)
smiles,measurement,setting,value
Cc1cnc(-c2ccc(Cl)c(Cl)c2)nc1Cc1cccc(C(F)(F)F)c1 [Compound 27],"Plant response rating, Soybean","soybean (Glycine max); Rate 62 g/ha, Postemergence",5
same,Soybean plant response rating,"soybean (Glycine max); Rate 62 g/ha, Preemergence",0
same,Soybean plant response rating,"soybean (Glycine max); Rate 125 g/ha, Postemergence",5
same,"Plant response rating, Soybean","soybean (Glycine max); Rate 125 g/ha, Preemergence",0
same,"Plant response rating, Soybean","soybean (Glycine max); Rate 250 g/ha, Postemergence",7
same,"Plant response rating, Soybean",soybean (Glycine max); [16],0
same,"Plant response rating, Nutsedge","[1]; Rate 62 g/ha, Postemergence",2
same,Nutsedge plant response rating,[1]; Rate 62 g/ha,0
same,Nutsedge plant response rating,[1]; Rate 125 g/ha,0
same,"Plant response rating, Nutsedge",[1]; [16],0
same,"Plant response rating, Cocklebur",[2]; Rate 62 g/ha,7
same,Cocklebur plant response rating,"[2]; Rate 62 g/ha, Preemergence",0
same,"Plant response rating, Cocklebur",[2]; Rate 125 g/ha,7
same,"Plant response rating, Cocklebur",[2]; Rate 250 g/ha,9
same,"Plant response rating, Wild oats","wild oat (Avena fatua); Rate 62 g/ha, Postemergence",3
same,Wild oats plant response rating,"wild oat (Avena fatua); Rate 62 g/ha, Preemergence",0
same,Wild oats plant response rating,"wild oat (Avena fatua); Rate 125 g/ha, Postemergence",4
same,"Plant response rating, Wild oats","wild oat (Avena fatua); Rate 125 g/ha, Preemergence",1
same,"Plant response rating, Wild oats","wild oat (Avena fatua); Rate 250 g/ha, Postemergence",5
same,"Plant response rating, Wild oats",wild oat (Avena fatua); [16],3
same,"Plant response rating, Crabgrass","[3]; Rate 62 g/ha, Postemergence",3
same,Crabgrass plant response rating,[3]; Rate 62 g/ha,1
same,"Plant response rating, Crabgrass","[3]; Rate 125 g/ha, Postemergence",4
same,Crabgrass plant response rating,[3]; Rate 125 g/ha,2
same,"Plant response rating, Crabgrass","[3]; Rate 250 g/ha, Postemergence",6
same,"Plant response rating, Crabgrass",[3]; [16],5
same,"Plant response rating, Corn","corn (Zea mays); Rate 62 g/ha, Postemergence",2
same,Corn plant response rating,corn (Zea mays); Rate 62 g/ha,0
same,"Plant response rating, Corn","corn (Zea mays); Rate 125 g/ha, Postemergence",3
same,Corn plant response rating,corn (Zea mays); Rate 125 g/ha,0
same,"Plant response rating, Corn","corn (Zea mays); Rate 250 g/ha, Postemergence",3
same,"Plant response rating, Corn",corn (Zea mays); [16],0
same,"Plant response rating, Wheat","[4]; Rate 62 g/ha, Postemergence",3
same,Wheat plant response rating,"[4]; Rate 62 g/ha, Preemergence",0
same,Wheat plant response rating,"[4]; Rate 125 g/ha, Postemergence",4
same,"Plant response rating, Wheat","[4]; Rate 125 g/ha, Preemergence",0
same,"Plant response rating, Wheat","[4]; Rate 250 g/ha, Postemergence",4
same,"Plant response rating, Wheat",[4]; [16],1
same,"Plant response rating, Sugarbeets","[5]; Rate 62 g/ha, Postemergence",9
same,Sugarbeets plant response rating,"[5]; Rate 62 g/ha, Preemergence",0
same,Sugarbeets plant response rating,"[5]; Rate 125 g/ha, Postemergence",9
same,"Plant response rating, Sugarbeets","[5]; Rate 125 g/ha, Preemergence",1
same,"Plant response rating, Sugarbeets","[5]; Rate 250 g/ha, Postemergence",10
same,"Plant response rating, Sugarbeets",[5]; [16],8
same,"Plant response rating, Blackgrass","[6]; Rate 62 g/ha, Postemergence",4
same,Blackgrass plant response rating,[6]; Rate 62 g/ha,0
same,"Plant response rating, Blackgrass","[6]; Rate 125 g/ha, Postemergence",4
same,Blackgrass plant response rating,[6]; Rate 125 g/ha,2
same,"Plant response rating, Blackgrass","[6]; Rate 250 g/ha, Postemergence",5
same,"Plant response rating, Blackgrass",[6]; [16],4
same,"Plant response rating, Rape","rape (Brassica napus); Rate 62 g/ha, Postemergence",8
same,Rape plant response rating,"rape (Brassica napus); Rate 62 g/ha, Preemergence",1
same,Rape plant response rating,"rape (Brassica napus); Rate 125 g/ha, Postemergence",8
same,Rape plant response rating,"rape (Brassica napus); Rate 125 g/ha, Preemergence",2
same,"Plant response rating, Rape","rape (Brassica napus); Rate 250 g/ha, Postemergence",9
same,"Plant response rating, Rape",rape (Brassica napus); [16],3
same,"Plant response rating, Velvetleaf","[7]; Rate 62 g/ha, Postemergence",5
same,Velvetleaf plant response rating,"[7]; Rate 62 g/ha, Preemergence",0
same,Velvetleaf plant response rating,"[7]; Rate 125 g/ha, Postemergence",7
same,"Plant response rating, Velvetleaf","[7]; Rate 125 g/ha, Preemergence",0
same,"Plant response rating, Velvetleaf","[7]; Rate 250 g/ha, Postemergence",7
same,"Plant response rating, Velvetleaf",[7]; [16],1
same,"Plant response rating, Bedstraw",[8]; Rate 62 g/ha,8
same,Bedstraw plant response rating,[8]; Rate 62 g/ha,0
same,"Plant response rating, Bedstraw",[8]; Rate 125 g/ha,9
same,Bedstraw plant response rating,[8]; Rate 125 g/ha,0
same,"Plant response rating, Bedstraw",[8]; Rate 250 g/ha,9
same,"Plant response rating, B. signalgrass","[9]; Rate 62 g/ha, Postemergence",3
same,B. signalgrass plant response rating,[9]; Rate 62 g/ha,0
same,"Plant response rating, B. signalgrass","[9]; Rate 125 g/ha, Postemergence",5
same,B. signalgrass plant response rating,[9]; Rate 125 g/ha,1
same,"Plant response rating, B. signalgrass","[9]; Rate 250 g/ha, Postemergence",5
same,"Plant response rating, B. signalgrass","[9]; Rate 250 g/ha, Postemergence as printed in head r139 (second section for compounds 26-50)",3
same,"Plant response rating, Morningglory","[10]; Rate 62 g/ha, Postemergence",5
same,Morningglory plant response rating,"[10]; Rate 62 g/ha, Preemergence",1
same,Morningglory plant response rating,"[10]; Rate 125 g/ha, Postemergence",8
same,Morningglory plant response rating,"[10]; Rate 125 g/ha, Preemergence",2
same,"Plant response rating, Morningglory","[10]; Rate 250 g/ha, Postemergence",8
same,"Plant response rating, Morningglory",[10]; [16],2
same,"Plant response rating, Giant foxtail","[11]; Rate 62 g/ha, Postemergence",3
same,Giant foxtail plant response rating,"[11]; Rate 62 g/ha, Preemergence",2
same,Giant foxtail plant response rating,"[11]; Rate 125 g/ha, Postemergence",4
same,Giant foxtail plant response rating,"[11]; Rate 125 g/ha, Preemergence",5
same,"Plant response rating, Giant foxtail","[11]; Rate 250 g/ha, Postemergence",4
same,"Plant response rating, Giant foxtail",[11]; [16],9
same,"Plant response rating, Redroot pigweed","[12]; Rate 62 g/ha, Postemergence",7
same,Redroot pigweed plant response rating,"[12]; Rate 62 g/ha, Preemergence",2
same,Redroot pigweed plant response rating,"[12]; Rate 125 g/ha, Postemergence",9
same,Redroot pigweed plant response rating,"[12]; Rate 125 g/ha, Preemergence",6
same,"Plant response rating, Redroot pigweed","[12]; Rate 250 g/ha, Postemergence",10
same,"Plant response rating, Redroot pigweed",[12]; [16],7
same,"Plant response rating, Barnyardgrass",[13]; [17],1
same,"Plant response rating, Barnyardgrass",[13]; [18],2
same,"Plant response rating, Barnyardgrass",[13]; [19],3
same,"Plant response rating, S. Flatsedge",[14]; [17],5
same,S. Flatsedge plant response rating,[14]; [20],5
same,"Plant response rating, S. Flatsedge",[14]; [19],5
same,"Plant response rating, Ducksalad",[15]; [17],0
same,"Plant response rating, Ducksalad",[15]; [18],1
same,"Plant response rating, Ducksalad",[15]; [19],2
same,"Plant response rating, Rice",rice (Oryza sativa); [17],0
same,Rice plant response rating,rice (Oryza sativa); [20],1
same,"Plant response rating, Rice",rice (Oryza sativa); [19],1
